Where two headings read alike, the source gives them in different places.
Key:
Format in all cases: cell-based
[1] = system: HCV 1a RLuc cells (dicistronic genotype 1a H77 replicon, RLuc reporter); experiment: microbe, parasite or virus in culture; conditions: Hepatitis C virus, read-out: 1a
Summary of the method: (§1)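 Replicon cells stably carrying the listed RLuc-encoding dicistronic replicons were seeded and treated with DMSO serial dilutions of compound (10 mM stocks) diluted into culture medium. After 72 h, cells were lysed and Renilla luciferase activity measured. EC50 was derived by non-linear regression.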

[2] = system: HCV 1b RLuc cells (dicistronic genotype 1b Con1 replicon, RLuc reporter); experiment: microbe, parasite or virus in culture; conditions: Hepatitis C virus, read-out: 1b (nM)
Summary of the method: as §1

[3] = system: HCV 2a JFH-1 Rluc cells (dicistronic genotype 2a JFH-1 replicon, RLuc reporter); experiment: microbe, parasite or virus in culture; conditions: Hepatitis C virus, read-out: 2a JFH
Summary of the method: as §1

[4] = system: HCV 2b Rluc cells (NS5A chimeric genotype 2a JFH-1 replicon with genotype 2b MD2b-1 NS5A gene, M31 present); experiment: microbe, parasite or virus in culture; conditions: Hepatitis C virus, read-out: 2b
Summary of the method: as §1

[5] = system: HCV 3a RLuc cells (NS5A chimeric genotype 1b Con1 replicon with consensus genotype 3a NS5A gene); experiment: microbe, parasite or virus in culture; conditions: Hepatitis C virus
Summary of the method: as §1

[6] = system: HCV 4a Rluc cells (NS5A chimeric genotype 1b Con1 replicon with genotype 4a NS5A gene); experiment: microbe, parasite or virus in culture; conditions: Hepatitis C virus, read-out: 4a
Summary of the method: as §1

[7] = system: HCV 2a Rluc cells (NS5A chimeric genotype 2a JFH-1 replicon with genotype 2a J6 strain NS5A gene, M31 present); experiment: HCV replicon reporter assay, genotype 2a J6 (M31 present); conditions: Hepatitis C virus, read-out: 2a J6
Summary of the method: as §1

[8] = read-out: 3a, genotype 3a replicon
[9] = genotype 2a JFH-1 RLuc replicon
[10] = read-out: 3a, genotype 3a NS5A chimeric replicon

SMILES | EC50 ([1]; genotype 1a replicon) [nM] | EC50 [2] [nM] | EC50 ([3]; genotype 2a JFH-1 replicon) [nM] | EC50 [4] [nM] | EC50 [5, 8] [nM] | EC50 [6] [nM] | EC50 [7] [nM] | EC50 ([1]; genotype 1a H77 RLuc replicon) [nM] | EC50 [3, 9] [nM] | EC50 [5, 10] [nM]
COC(=O)N[C@H](C(=O)N1[C@@H]2CC[C@@H](C2)[C@H]1c1ncc(-c2ccc(-c3ccc4c(ccc5nc([C@@H]6C[C@H]7C[C@H]7N6C(=O)[C@H](NC(=O)OC)c6ccccc6)[nH]c54)c3)cc2)[nH]1)C(C)C [Example 379] | 0.001 to 0.999 | 0.009 | 0.001 to 0.999 | > 44 | 0.001 to 0.99 | 0.001 to 0.99 | 0.001 to 0.999 | – | – | –
COC(=O)N[C@@H](C(=O)N1CCC[C@H]1c1nc(Cl)c(-c2cc3c4c(c2)OCc2cc(-c5[nH]c([C@@H]6CCCN6C(=O)[C@H](NC(=O)OC)c6ccccc6)nc5Cl)cc(c2-4)OC3)[nH]1)c1ccccc1 [Example 421] | 0.001 to 0.999 | 0.041 | 0.001 to 0.999 | 0.001 to 0.999 | 0.001 to 0.99 | 0.001 to 0.99 | 0.001 to 0.999 | – | – | –
O=C([C@H](Nc1ncccn1)c1ccccc1)N1CCC[C@H]1c1ncc(-c2cc3c4c(c2)OCc2cc(-c5cnc([C@@H]6CCCN6C(=O)[C@H](Nc6ncccn6)c6ccccc6)[nH]5)cc(c2-4)OC3)[nH]1 [Example 463] | 1 to 44 | – | 1 to 44 | > 44 | 1 to 4.99 | > 5 | > 44 | – | – | –
COC(=O)N[C@H](C(=O)N1CC2(C[C@H]1c1nc3ccc4cc(-c5ccc6c(ccc7nc([C@@H]8CCCN8C(=O)[C@H](NC(=O)OC)c8ccccc8)[nH]c76)c5)ccc4c3[nH]1)OCCO2)C(C)C [Example 323] | 0.001 to 0.999 | 0.043 | 0.001 to 0.999 | 0.001 to 0.999 | 0.001 to 0.99 | 0.001 to 0.99 | 0.001 to 0.999 | – | – | –
CC#Cc1cc(-c2cnc([C@@H]3CCCN3C(=O)[C@@H](NC(=O)OC)C(C)C)[nH]2)ccc1-c1ccc2c(ccc3nc([C@@H]4C[C@H](COC)CN4C(=O)[C@H](NC(=O)OC)c4ccccc4)[nH]c32)c1 [Example 549] | – | 0.007 | – | 0.001 to 0.999 | – | 0.001 to 0.99 | 0.001 to 0.999 | 0.001 to 0.999 | 0.001 to 0.999 | 0.001 to 0.99
COC[C@H]1C[C@@H](c2nc3ccc4cc(-c5ccc6c(ccc7nc([C@@H]8C[C@H]9C[C@H]9N8C(=O)[C@@H](NC(=O)OC)C(C)C)[nH]c76)c5)ccc4c3[nH]2)N(C(=O)[C@@H](NC(=O)OC)C(C)C)C1 [Example 471] | 0.001 to 0.999 | 0.015 | 0.001 to 0.999 | 1 to 44 | 0.001 to 0.99 | 0.001 to 0.99 | 0.001 to 0.999 | – | – | –
O=C(N[C@@H](C(=O)N1CCC[C@H]1c1ncc(-c2cc3c4c(c2)OCc2cc(-c5cnc([C@@H]6CCCN6C(=O)[C@H](NC(=O)C6CCOCC6)c6ccccc6)[nH]5)cc(c2-4)OC3)[nH]1)c1ccccc1)C1CCOCC1 [Example 490] | – | 0.989 | – | 0.001 to 0.999 | – | 0.001 to 0.99 | 0.001 to 0.999 | 1 to 44 | 0.001 to 0.999 | 0.001 to 0.99
CN1CCN(C(=O)N[C@@H](C(=O)N2CCC[C@H]2c2ncc(-c3cc4c5c(c3)OCc3cc(-c6cnc([C@@H]7CCCN7C(=O)[C@H](NC(=O)N7CCN(C)CC7)c7ccccc7)[nH]6)cc(c3-5)OC4)[nH]2)c2ccccc2)CC1 [Example 464] | > 44 | – | 1 to 44 | > 44 | 1 to 4.99 | > 5 | 1 to 44 | – | – | –
CC[C@H](C)[C@H](NC(=O)OC)C(=O)N1C[C@@H](COC)C[C@H]1c1ncc(-c2ccc3c(c2)COc2cc4c(ccc5nc([C@@H]6C[C@H](COC)CN6C(=O)[C@@H](NC(=O)OC)[C@@H](C)CC)[nH]c54)cc2-3)[nH]1 [Example 580] | – | – | – | 0.001 to 0.999 | – | 0.001 to 0.99 | 0.001 to 0.999 | 0.001 to 0.999 | 0.001 to 0.999 | 0.001 to 0.99
CN(C)CCC(=O)N[C@@H](C(=O)N1CCC[C@H]1c1ncc(-c2cc3c4c(c2)OCc2cc(-c5cnc([C@@H]6CCCN6C(=O)[C@H](NC(=O)CCN(C)C)c6ccccc6)[nH]5)cc(c2-4)OC3)[nH]1)c1ccccc1 [Example 467] | > 44 | – | > 44 | > 44 | > 5 | > 5 | > 44 | – | – | –
CC[C@H](C)[C@H](NC(=O)OC)C(=O)N1[C@@H]2C[C@@H]2C[C@H]1c1nc2ccc3cc(-c4ccc5c(ccc6nc([C@@H]7C[C@H](COC)CN7C(=O)[C@H](NC(=O)OC)c7ccccc7)[nH]c65)c4)ccc3c2[nH]1 [Example 529] | – | 0.013 | – | 0.001 to 0.999 | – | 0.001 to 0.99 | 0.001 to 0.999 | 0.001 to 0.999 | 0.001 to 0.999 | –
